Data reported in EPA's ToxValDB 9.5 (doi:10.2903/j.efsa.2005.32ar).
≈ marks a conversion by molar mass, not a printed value.

Experiments:
Daphnia magna = conditions: chronic/long-term; duration: 21 days; reproduction
Bibionidae = conditions: chronic/long-term; development
Anas platyrhynchos = conditions: short-term; oral; feed; mortality
Canidae = conditions: chronic; duration: 6 months; oral; Dog Other; clinical signs
Rattus norvegicus = conditions: reproduction developmental
Apis mellifera = conditions: acute; duration: 48 hours; dermal; mortality
Tagia sp. = conditions: acute; mortality
Aphidius rhopalosiphi = test: LR50; higher = less toxic; conditions: acute; duration: 48 hours; mortality

## COP(=S)(OC)Oc1c(Cl)cc(C)cc1Cl [Tolclofos-methyl]
Daphnia magna
  NOEC: 0.026 mg/L
Mus musculus; acute, oral, mortality
  LD50: 3500 mg/kg
Mus musculus; chronic, duration: 2 years, clinical signs
  NOAEL: 6.4 mg/kg-day
Bibionidae
  NOEC: 0.25 mg/L
Anas platyrhynchos
  LC50: > 1620 mg/kg-day
Oncorhynchus mykiss; acute, duration: 96 hours, mortality
  LC50: 0.69 mg/L (≈ 2.29 µM)
Oncorhynchus mykiss; chronic/long-term, duration: 97 days, growth
  NOEC: 0.012 mg/L
Canidae
  NOAEL: 21 mg/kg-day
Rattus norvegicus
  NOEC: 70.6 mg/kg-day
Colinus virginianus; acute, oral, mortality
  LD50: > 5000 mg/kg
Colinus virginianus; reproduction developmental
  NOEL: 49 mg/kg-day
Apis mellifera
  LD50: > 100 µg/piece
Tagia sp.
  LC50: > 1000 mg/kg
Aphidius rhopalosiphi
  LR50: 43.7 g/ha
